Data from article PMC11801377, “A uniquely efficacious type of CFTR corrector with complementary mode of action” (Science Advances, 2024).

What was measured:
Format in all cases: cell-based
R347P CFTR = biological target: T1, R347P CFTR (Homo sapiens, UniProt P13569, R347P); assay: CFTR correction (immunoblotting), HEK-TREx, R347P; settings: 48 hours, IDOR-3 2 μM, IDOR-4 0.4 μM, TEZ 2 μM + ELX 0.4 μM
T1 construct: expressed in transfected cells; host or cells: T-REx HEK293
Description: (§1) The human CFTR expressing HEK cell pools with the mutations described below were generated by integrase-mediated homologous recombination of the CFTR sequence into the T-REx HEK293 background (Thermo Fisher Scientific). This expression system allows the tetracycline-inducible expression of genes of interest from one defined insertion site. Parental T-REx-HEK293 cells were cultivated in growth medium: Dulbecco’s modified Eagle’s medium + GlutaMAX-I (#31966, Life Technologies), 10% dialyzed FBS (Gibco, #26400), penicillin (100 U/ml), streptomycin (100 μg/ml), hygromycin B (0.1 mg/ml; Life Technologies), blasticidin (5 μg/ml; Invitrogen, #R210-01), and 0.1 mM nonessential amino acid solution (Invitrogen, #11140-035). Recombinant T-REx-HEK-CFTR cells were generated by lipofectamine transfection (Life Technologies) of plasmids containing mutated versions of CFTR (RefSeq NM_000492) and then cultivated in selection medium [growth medium containing Geneticin (1 mg/ml) (Invitrogen, #10131-027) instead of hygromycin]. The plasmid constructs were synthetized by GENEART (Thermo Fisher Scientific) and designed with the WT CFTR intron 5 to 6 (880 nucleotides) to prevent leaky expression issues during the cloning process in bacteria. […]

F508del-CFTR = F508del-CFTR (Homo sapiens, UniProt P13569, DEL508-508); assay: CFTR immunoblotting in HEK-TREx cells expressing F508del-CFTR; design: expressed in transfected cells; host or cells: T-REx HEK293; settings: 48 hours, IDOR-3 2 μM, IDOR-4 0.4 μM
Description: as §1

M1101K CFTR = biological target: T2, M1101K CFTR (Homo sapiens, UniProt P13569, M1101K); assay: CFTR correction (immunoblotting), HEK-TREx, M1101K; settings: 48 hours, IDOR-3 2 μM, IDOR-4 0.4 μM, TEZ 2 μM + ELX 0.4 μM
T2 construct: expressed in transfected cells; host or cells: T-REx HEK293
Description: as §1

T1 sequence (P13569 whole entry R347P): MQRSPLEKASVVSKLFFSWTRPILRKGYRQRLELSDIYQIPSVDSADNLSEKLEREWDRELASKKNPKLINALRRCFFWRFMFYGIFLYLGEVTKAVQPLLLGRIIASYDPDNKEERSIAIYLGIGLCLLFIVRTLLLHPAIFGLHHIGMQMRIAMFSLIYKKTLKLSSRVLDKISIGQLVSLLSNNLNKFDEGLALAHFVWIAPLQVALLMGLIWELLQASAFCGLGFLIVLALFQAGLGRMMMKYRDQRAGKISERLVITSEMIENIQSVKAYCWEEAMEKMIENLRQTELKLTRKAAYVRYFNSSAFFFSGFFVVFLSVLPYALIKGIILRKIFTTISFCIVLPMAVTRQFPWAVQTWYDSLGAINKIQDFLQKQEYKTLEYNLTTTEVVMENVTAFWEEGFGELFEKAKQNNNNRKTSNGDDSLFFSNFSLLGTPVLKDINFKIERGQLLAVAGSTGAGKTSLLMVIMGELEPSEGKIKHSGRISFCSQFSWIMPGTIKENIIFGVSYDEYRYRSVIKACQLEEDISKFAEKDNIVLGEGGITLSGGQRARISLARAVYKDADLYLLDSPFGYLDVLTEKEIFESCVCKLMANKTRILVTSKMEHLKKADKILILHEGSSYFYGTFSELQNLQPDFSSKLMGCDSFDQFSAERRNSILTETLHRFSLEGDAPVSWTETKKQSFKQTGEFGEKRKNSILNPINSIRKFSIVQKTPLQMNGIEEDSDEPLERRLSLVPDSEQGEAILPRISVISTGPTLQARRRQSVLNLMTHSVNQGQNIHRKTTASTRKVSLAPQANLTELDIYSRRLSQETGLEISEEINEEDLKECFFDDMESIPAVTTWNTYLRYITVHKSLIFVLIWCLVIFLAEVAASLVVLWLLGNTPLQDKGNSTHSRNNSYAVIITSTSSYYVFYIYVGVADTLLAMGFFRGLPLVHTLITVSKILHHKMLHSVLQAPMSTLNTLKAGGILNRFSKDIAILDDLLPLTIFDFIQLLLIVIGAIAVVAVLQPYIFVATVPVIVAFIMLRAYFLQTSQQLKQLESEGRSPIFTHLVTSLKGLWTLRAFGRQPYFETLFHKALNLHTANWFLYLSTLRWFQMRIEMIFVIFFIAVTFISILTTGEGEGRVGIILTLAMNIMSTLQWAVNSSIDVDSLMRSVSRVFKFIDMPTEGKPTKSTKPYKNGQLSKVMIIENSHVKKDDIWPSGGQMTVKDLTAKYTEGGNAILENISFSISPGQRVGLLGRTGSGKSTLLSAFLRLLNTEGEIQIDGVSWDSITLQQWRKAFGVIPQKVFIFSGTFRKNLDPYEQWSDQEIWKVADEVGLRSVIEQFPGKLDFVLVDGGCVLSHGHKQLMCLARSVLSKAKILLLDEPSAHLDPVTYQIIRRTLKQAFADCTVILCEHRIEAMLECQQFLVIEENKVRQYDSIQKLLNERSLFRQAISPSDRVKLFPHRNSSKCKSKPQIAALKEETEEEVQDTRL
F508del-CFTR, sequence (P13569 with tags, fused parts or gaps DEL508-508): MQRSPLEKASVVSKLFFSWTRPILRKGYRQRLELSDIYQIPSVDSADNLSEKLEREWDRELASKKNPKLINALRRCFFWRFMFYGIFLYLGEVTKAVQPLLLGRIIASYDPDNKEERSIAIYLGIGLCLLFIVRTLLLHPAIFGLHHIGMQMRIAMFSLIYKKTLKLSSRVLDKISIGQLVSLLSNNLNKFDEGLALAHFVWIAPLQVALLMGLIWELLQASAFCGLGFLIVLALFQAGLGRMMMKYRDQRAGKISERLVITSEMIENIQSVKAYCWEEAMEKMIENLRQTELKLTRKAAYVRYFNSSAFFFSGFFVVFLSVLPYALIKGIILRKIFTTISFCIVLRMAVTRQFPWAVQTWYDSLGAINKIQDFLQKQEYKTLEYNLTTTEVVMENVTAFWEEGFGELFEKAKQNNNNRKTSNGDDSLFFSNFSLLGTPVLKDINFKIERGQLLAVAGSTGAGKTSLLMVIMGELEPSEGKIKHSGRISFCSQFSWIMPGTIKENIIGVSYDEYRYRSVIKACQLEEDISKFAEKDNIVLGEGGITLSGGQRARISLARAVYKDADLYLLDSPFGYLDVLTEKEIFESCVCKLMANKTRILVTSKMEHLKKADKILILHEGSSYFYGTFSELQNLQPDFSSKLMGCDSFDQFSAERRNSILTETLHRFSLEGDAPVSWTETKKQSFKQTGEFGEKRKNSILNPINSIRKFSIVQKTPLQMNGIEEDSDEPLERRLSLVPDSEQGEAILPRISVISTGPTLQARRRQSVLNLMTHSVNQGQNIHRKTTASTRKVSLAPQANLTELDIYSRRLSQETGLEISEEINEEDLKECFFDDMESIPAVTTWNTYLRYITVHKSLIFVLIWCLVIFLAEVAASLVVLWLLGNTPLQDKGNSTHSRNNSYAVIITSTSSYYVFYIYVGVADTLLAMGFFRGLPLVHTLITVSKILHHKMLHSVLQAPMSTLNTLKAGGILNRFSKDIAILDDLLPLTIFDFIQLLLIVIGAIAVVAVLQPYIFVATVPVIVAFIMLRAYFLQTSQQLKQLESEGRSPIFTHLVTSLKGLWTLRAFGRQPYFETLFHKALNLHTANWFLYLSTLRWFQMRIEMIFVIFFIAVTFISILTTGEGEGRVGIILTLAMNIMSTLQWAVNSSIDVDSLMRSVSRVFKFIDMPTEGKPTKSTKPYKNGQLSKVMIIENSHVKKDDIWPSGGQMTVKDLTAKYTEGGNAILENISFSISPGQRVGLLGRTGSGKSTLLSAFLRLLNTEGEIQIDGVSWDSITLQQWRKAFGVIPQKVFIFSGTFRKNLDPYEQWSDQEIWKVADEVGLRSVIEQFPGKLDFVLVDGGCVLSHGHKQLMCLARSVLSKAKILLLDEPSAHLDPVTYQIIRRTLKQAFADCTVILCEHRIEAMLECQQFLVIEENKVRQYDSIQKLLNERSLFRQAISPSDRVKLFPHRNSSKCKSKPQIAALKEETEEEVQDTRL
T2 sequence (P13569 whole entry M1101K): as the sequence (P13569 whole entry R347P) above, with P347R, M1101K counted along it

correction of R347P (R347P CFTR): highly effective | increase in C-band expression (F508del-CFTR): 9 fold | correction of M1101K (M1101K CFTR): highly effective
SMILES: COc1cc(CCNC(=O)C2CC(=O)N(C)C(CC(C)C)C(=O)N3CCCCC3C(=O)NC(Cc3ccccc3)COc3ccc4ncc(F)cc4c3C(=O)N2)on1 (stereo not drawn) [IDOR-3]
